According to US20240228488A1 (TAKEDA PHARMACEUTICAL COMPANY LIMITED, priority 2021, published 2024):

These compounds were tested against human activated kallikrein enzyme (Homo sapiens, UniProt P03952) (assay: Plasma kallikrein inhibition, fluorogenic PFR-AMC substrate, 500 pM activated kallikrein format). Settings: 500 pM activated kallikrein, 300 uM PFR-AMC, 30 min preincubation, 10 min reaction; read-out: Primary Dose Response Assay: Average EC50.
Type: biochemical
Outline: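 Enzyme at 500 pM preincubated 30 min RT with inhibitors in 20 mM Tris pH 7.5, 1 mM EDTA, 150 mM NaCl, 0.1% PEG-400, 0.1% Triton X-100. Reaction started with 300 uM PFR-AMC, run 10 min RT; fluorescence read at 460 nm emission, 380 nm excitation. EC50 reported in ranges.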

Sequence of human activated kallikrein enzyme (P03952 391-638 limits assumed): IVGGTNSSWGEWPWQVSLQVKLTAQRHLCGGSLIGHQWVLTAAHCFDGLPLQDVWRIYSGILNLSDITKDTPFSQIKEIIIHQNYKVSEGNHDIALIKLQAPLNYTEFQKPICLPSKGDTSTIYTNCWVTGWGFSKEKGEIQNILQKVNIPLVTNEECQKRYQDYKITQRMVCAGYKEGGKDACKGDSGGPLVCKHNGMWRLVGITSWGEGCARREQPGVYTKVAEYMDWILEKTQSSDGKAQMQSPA
Sequence of human activated kallikrein enzyme (P03952 20-390 partner limits assumed): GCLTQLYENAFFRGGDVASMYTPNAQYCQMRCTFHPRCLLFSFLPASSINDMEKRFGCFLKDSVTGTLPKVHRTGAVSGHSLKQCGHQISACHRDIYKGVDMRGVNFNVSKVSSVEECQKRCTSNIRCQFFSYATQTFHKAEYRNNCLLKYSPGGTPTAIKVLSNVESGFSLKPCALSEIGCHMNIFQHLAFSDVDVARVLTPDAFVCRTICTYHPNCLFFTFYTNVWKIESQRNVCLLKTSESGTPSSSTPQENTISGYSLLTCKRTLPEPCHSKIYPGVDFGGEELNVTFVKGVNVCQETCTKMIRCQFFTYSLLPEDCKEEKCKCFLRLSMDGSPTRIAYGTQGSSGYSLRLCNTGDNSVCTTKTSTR

Question: For `COc1ccc(C#N)c([C@H]2C[C@@H]2C(=O)Nc2cc(NCc3cn4cc(C5CC5)ccc4n3)ncn2)c1F` (racemic) [Example 314, rac-(1S*,2S*)-2-(6-cyano-2-fluoro-3-methoxyphenyl)-N-(6-(((6-cyclopropylimidazo[1,2-a]pyridin-2-yl)methyl)amino)pyrimidin-4-yl)cyclopropane-1-carboxamide], which EC50 is on record?
Answer: The EC50 was 10 to 100 nM.

Question: For `O=C(Nc1cc(NCc2cn3cc(C4CC4)cc(N4CCN5CC(F)(F)CC5C4)c3n2)ncn1)[C@H]1C[C@@H]1c1cccc(Cl)c1` (stereo partly drawn) [Example I-197, (1S,2S)-2-(3-chlorophenyl)-N-(6-(((6-cyclopropyl-8-(7,7-difluorohexahydropyrrolo[1,2-a]pyrazin-2(1H)-yl)imidazo[1,2-a]pyridin-2-yl)methyl)amino)pyrimidin-4-yl)cyclopropane-1-carboxamide], which EC50 is on record?
Answer: The EC50 was 10 to 100 nM.

Question: How did the EC50 turn out when `O=C(Nc1cc(Cc2cn3cc(C4CC4)ccc3n2)ncn1)[C@H]1C[C@@H]1c1cccc(Cl)c1` (racemic) [Example 587, rac-(1S*,2S*)-2-(3-chlorophenyl)-N-(6-((6-cyclopropylimidazo[1,2-a]pyridin-2-yl)methyl)pyrimidin-4-yl)cyclopropane-1-carboxamide] was run?
Answer: The EC50 was 100 to 1000 nM.

Question: How did the EC50 turn out when `CCOC(=O)Cc1cc(C2CC2)cn2cc(CNc3ccnc(NC(=O)[C@H]4C[C@@H]4c4cccc(Cl)c4)c3)nc12` [Example I-241, ethyl 2-(2-(((2-((1S,2S)-2-(3-chlorophenyl)cyclopropane-1-carboxamido)pyridin-4-yl)amino)methyl)-6-cyclopropylimidazo[1,2-a]pyridin-8-yl)acetate] was run?
Answer: Its EC50 is < 1 nM.

Question: With `COc1cccc([C@H]2C[C@@H]2C(=O)Nc2cc(NCc3cn4cc(C5CC5)ccc4n3)ncn2)c1` (racemic) [Example 53, rac-(1S*,2S*)-N-(6-(6-cyclopropylimidazo[1,2-a]pyridin-2-yl)methyl)amino)pyrimidin-4-yl)-2-(3-methoxyphenyl)cyclopropane-1-carboxamide] as the compound, how does the EC50 read?
Answer: The EC50 was 100 to 1000 nM.

Question: Which EC50 does the source give for `Cc1ccnc([C@H]2C[C@@H]2C(=O)Nc2cc(NCc3cn4cc(Cl)cc(N5CC(=O)N(C)C5=O)c4n3)ncn2)n1` [Example 380, (1S,2S)-N-(6-(((6-chloro-8-(3-methyl-2,4-dioxoimidazolidin-1-yl)imidazo[1,2-a]pyridin-2-yl)methyl)amino)pyrimidin-4-yl)-2-(4-methylpyrimidin-2-yl)cyclopropane-1-carboxamide] here?
Answer: The EC50 was < 1 nM.

Question: For `O=C(Nc1cc(NCc2cn3cc(C4CC4)ccc3n2)ccn1)[C@@H]1C[C@]12CCc1ccc(Cl)cc12` (single isomer, unassigned) [Example I-273, rac-(1S*,2S*)-6′-chloro-N-(4-(((6-cyclopropylimidazo[1,2-a]pyridin-2-yl)methyl)amino)pyridin-2-yl)-2′,3′-dihydrospiro[cyclopropane-1,1′-indene]-2-carboxamide], which EC50 is on record?
Answer: Its EC50 is < 1 nM.

Question: With `Cc1ccnc([C@H]2C[C@@H]2C(=O)Nc2cc(N[C@H](C)c3cn4cc(C(F)F)cc(N5CC(=O)N(C)C5=O)c4n3)ncn2)n1` [Example 417, (1S,2S)-N-(6-(((R)-1-(6-(difluoromethyl)-8-(3-methyl-2,4-dioxoimidazolidin-1-yl)imidazo[1,2-a]pyridin-2-yl)ethyl)amino)pyrimidin-4-yl)-2-(4-methylpyrimidin-2-yl)cyclopropane-1-carboxamide] as the compound, how does the EC50 read?
Answer: The EC50 was < 1 nM.

Question: How did the EC50 turn out when `O=C(Nc1cc(N2C[C@@H](O)C[C@@H]2c2cn3cc(C4CC4)ccc3n2)ncn1)[C@H]1C[C@@H]1c1cc(Cl)ccn1` (single isomer, unassigned; isomer 1) [Example I-248, (1S*,2S*)-2-(4-chloropyridin-2-yl)-N-(6-((2R,4S)-2-(6-cyclopropylimidazo[1,2-a]pyridin-2-yl)-4-hydroxypyrrolidin-1-yl)pyrimidin-4-yl)cyclopropane-1-carboxamide, isomer 1] was run?
Answer: Its EC50 is 1000 to 6000 nM.
